# In patent EP0452101B1, “Spiro bridged and unbridged heterocyclic compounds” (ISRAEL INSTITUTE FOR BIOLOGICAL RESEARCH, priority 1990, dated 1991):
# What was measured:
# M2 muscarinic receptors = biological target: T1, M2 muscarinic receptors (Rattus norvegicus, UniProt P10980); experiment: Displacement of 3H-QNB from rat cerebellum, 50 mM phosphate buffer; format: binding; conditions: cerebellum
# T1 construct: displacing from rat brain homogenates, cerebellum or frontal cortex; from tissue; host or cells: rat cerebellum homogenates
# T1 sequence (P10980 1-466): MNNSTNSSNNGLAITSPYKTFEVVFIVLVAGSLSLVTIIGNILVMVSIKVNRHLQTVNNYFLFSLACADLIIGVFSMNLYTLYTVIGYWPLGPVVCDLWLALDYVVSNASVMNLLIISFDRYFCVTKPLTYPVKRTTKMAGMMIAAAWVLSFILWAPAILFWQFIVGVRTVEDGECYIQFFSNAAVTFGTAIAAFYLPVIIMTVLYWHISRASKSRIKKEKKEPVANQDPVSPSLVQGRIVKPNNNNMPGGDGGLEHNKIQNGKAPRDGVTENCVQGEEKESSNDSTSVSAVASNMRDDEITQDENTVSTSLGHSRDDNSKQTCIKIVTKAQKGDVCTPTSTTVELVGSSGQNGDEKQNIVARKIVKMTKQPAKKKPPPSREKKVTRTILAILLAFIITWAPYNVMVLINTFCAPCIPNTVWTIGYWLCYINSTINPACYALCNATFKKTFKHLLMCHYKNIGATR
# [1] = tested on: Male white mice of the CD-1 strain; experiment: Pharmacodynamic profile and general toxicity, Part B (signs, mortality, LD50); format: in vivo; conditions: Table 10
# Excerpt: Male white mice of the CD-1 strain (Charles River, UK), within the body weight range of 18-26 g, were used throughout this study, carried out on AF123, AF125 and AF125(N).
# Furthermore, these initial trials clearly established that the major signs of reactions to treatment consisted primarily of signs characteristic for potential cholinomimetic activity of the test material, such as tremors, salivation, lacrimation, diarrhea, analgesia, hypothermia and vasodilation. […]
# M1 muscarinic receptor [2] = biological target: T2, M1 muscarinic receptor (Rattus norvegicus, UniProt P08482); experiment: Displacement of 3H-PZ from rat cerebral cortex, 10 mM phosphate buffer; format: binding; set-up: from tissue; host or cells: rat cerebral cortex homogenates; conditions: for % H / Ki: cortex, Table 4; for Ki: read-out: 3H-PZ-Binding KH (a)
# T2 sequence (P08482 1-460): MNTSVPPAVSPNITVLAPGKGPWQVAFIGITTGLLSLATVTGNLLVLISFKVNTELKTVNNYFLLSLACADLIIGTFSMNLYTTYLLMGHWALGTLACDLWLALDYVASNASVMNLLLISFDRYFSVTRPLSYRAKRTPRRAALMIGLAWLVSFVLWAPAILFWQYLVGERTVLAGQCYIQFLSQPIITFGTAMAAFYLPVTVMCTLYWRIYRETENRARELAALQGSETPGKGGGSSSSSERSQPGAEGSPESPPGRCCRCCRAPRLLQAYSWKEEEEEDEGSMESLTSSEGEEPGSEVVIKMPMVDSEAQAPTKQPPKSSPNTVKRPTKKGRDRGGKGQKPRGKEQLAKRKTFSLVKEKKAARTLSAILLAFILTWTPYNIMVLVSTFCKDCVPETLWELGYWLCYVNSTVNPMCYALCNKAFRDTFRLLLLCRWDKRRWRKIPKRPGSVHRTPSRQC
# [3] = Chemical stability (thermal, aqueous solution); format: physicochemical; conditions: free base, monitored with 1H-NMR
# Excerpt: Most of these compounds are relatively stable. […] Its chemical behaviour resembles that of known 2-oxazoline derivatives. […] The formation of the decomposition products can be monitored with ^1H-NMR by inspection at two regions δ 3.3-3.5 (appearance of two doublets) and 1.9-2.0 ppm (appearance of two additional singlets).
# The expected decomposition pattern (when e.g., X is O and Y is N) involves opening of the oxazoline ring to form both amide and ester as shown in Scheme E, in which the quinuclidine-derived compounds are depicted illustratively. The formation of two new singlets at δ 1.9-2.0 ppm as expected for R = Me of these two structures are in agreement with this supposition. [drawing 32]
# Ring opening is much faster in the presence of dilute hydrochloric acid. […] The tendency to decomposition of such salts complicates the optical separation of compounds such as AF125 and AF123. However, this problem can be overcome by using the method described for the optical separation of the enantiomers of AF125, or alternatively the amino-alcohols such as 3-aminomethylquinuclidin-3-ol can be resolved and the separated enantiomers can then be cyclized using an ester or imidate as already described. In yet another alternative the N-acyl derivatives of (e.g.) 3-aminomethylquinuclidin-3-ol can be resolved and the separated enantiomers can then be cyclized per se as shown in Scheme K: [drawing 33] […]
# [4] = biological target: T3, m3 subtype (SK-N-SH cells) (Homo sapiens, UniProt P20309); experiment: PI hydrolysis in SK-N-SH neuroblastoma cells; format: cell-based
# T3 construct: endogenous in cells; host or cells: SK-N-SH human neuroblastoma cells
# Procedure: (§1) The new compounds AF150, AF151, AF150(S) and AF125 were assayed for their ability to stimulate PI in CHO cells transfected with m1 and m3 receptors, respectively (Buck and Fraser, loc cit), and in cultured human neuroblastoma cells, line SK-N-SH, which express mainly the m3 subtype, but not the m1 subtype (Pinkas-Kramarski et al, Neurosci. Lett. 188: 335-340, 1990; Luthin et al Mol. Pharmacol. 34: 327-333, 1988). These compounds were also assayed on cultured PC12 cells which express mainly m4 subtype receptors and are coupled to inhibition of AC activity (Pinkas-Kramarski et al, loc cit).
# (§2) Stimulation of PI breakdown was assayed using the method described by Stein et al (EMBO J. 7: 3031-3035, 1988), and modulation of AC activity was assayed by the method of Stein et al, loc cit and Pinkas-Kramarski et al (FEBS Lett., 239: 174-178, 1988). […]
# M1 muscarinic receptor [5] = biological target: T2, M1 muscarinic receptor; experiment: Displacement of 3H-QNB from rat cerebral cortex, 50 mM phosphate buffer; format: binding; conditions: cortex, Table 5
# muscarinic receptors = experiment: (-)3H-QNB binding to rat cerebral cortex homogenates with and without Cu++ treatment
# M1 muscarinic receptor [6] = biological target: T2, M1 muscarinic receptor; experiment: Displacement of 3H-PZ from cortical binding sites, Tris/Mn buffer, with and without GppNHp; set-up: from tissue; host or cells: rat cerebral cortex homogenates
# Excerpt: The binding of agonists to M1 muscarinic receptors and the effect of guanylyl imidophosphate (GppNHp). Agonists are known to be coupled with guanine nucleotide binding proteins (G proteins).
# Non-hydrolyzable guanine nucleotides such as GppNHp dissociate the G protein from the receptor and decrease the affinity of the receptor for agonists but not for antagonists. […] Molec.
# Under these conditions agonists of high efficacy ("full agonists") bind directly to the M1 receptor subtype with two affinities. […] The ratio of low and high affinities (KL/KH) of the M1 receptor may predict the relative efficacies of agonists to activate putative M1 receptor-mediated second messenger systems.
# KH, KL, %H and %L are the apparent inhibition constants of the tested ligands for the high and low affinity sites, respectively. G is GppNHp (guanylyl imidodiphosphate), and was used in 0.1 mM concentration. Displacement of ^3H-PZ from cortical binding sites was performed in Tris/Mn buffer (pH 7.4) for one hour at 25°C; the buffer included 1 mM EDTA and 2mM Mn^++ ions. […] The binding data were analyzed using a GraphPAD program and were fitted to one or two components. Values are means from 1-3 experiments carried out in triplicates.
# m1 receptors = biological target: T4, m1 receptors (Rattus norvegicus, UniProt P08482); experiment: PI hydrolysis in CHO cells transfected with m1 receptors; format: cell-based
# T4 construct: expressed in transfected cells; host or cells: CHO cells
# T4 sequence (P08482 1-460): T2 sequence (P08482 1-460)
# m3 receptors = m3 receptors (Rattus norvegicus, UniProt P08483); experiment: PI hydrolysis in CHO cells transfected with m3 receptors; format: cell-based; conditions: CHO m3; tested at 1mM
# Procedure: as §1, §2
# [7] = tested on: CA1 neurons in the hippocampal slice; experiment: Electrophysiological evaluation in rat hippocampal slices
# Procedure: In general terms the effects of microdrops of AF150, ACh and PZ were applied to rat hippocampal cells recorded intracellularly. The exact concentrations of the drug at the receptor sites are not known, using this method. However, this method has an advantage over the perfusion method, in that it gives a more correct picture from the electrophysiological point of view (Segal, loc cit).
# Intracellular responses to AF150 of CA1 neurons in the hippocampal slice were recorded, using the method of Segal. Small hyperpolarizing current pulses (current traces not shown) were alternated with stimulation of the Schaffer-commissural afferents producing postsynaptic potentials.
# [8] = biological target: T5, m4 subtype receptors (PC12 cells) (Rattus norvegicus, UniProt P08485); experiment: Inhibition of adenylate cyclase activity in PC12 cells; format: cell-based
# T5 construct: endogenous in cells; host or cells: PC12 cells
# T5 sequence (P08485 1-478): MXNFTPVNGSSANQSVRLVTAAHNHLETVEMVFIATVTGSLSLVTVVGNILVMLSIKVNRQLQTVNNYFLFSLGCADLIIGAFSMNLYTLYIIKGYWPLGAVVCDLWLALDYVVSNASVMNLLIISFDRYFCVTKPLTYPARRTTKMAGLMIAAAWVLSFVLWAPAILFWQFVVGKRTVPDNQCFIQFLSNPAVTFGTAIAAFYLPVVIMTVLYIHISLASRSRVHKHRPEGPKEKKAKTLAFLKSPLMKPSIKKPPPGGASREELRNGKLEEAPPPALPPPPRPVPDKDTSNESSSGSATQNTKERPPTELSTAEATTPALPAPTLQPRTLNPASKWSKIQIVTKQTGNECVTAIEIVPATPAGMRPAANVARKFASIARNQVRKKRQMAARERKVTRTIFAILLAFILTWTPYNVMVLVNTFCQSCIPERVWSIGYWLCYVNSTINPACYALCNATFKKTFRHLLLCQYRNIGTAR
# Procedure: as §1, §2
# [9] = 400 mg/kg p.os, animals affected/treated
# T3 sequence (P20309 whole entry): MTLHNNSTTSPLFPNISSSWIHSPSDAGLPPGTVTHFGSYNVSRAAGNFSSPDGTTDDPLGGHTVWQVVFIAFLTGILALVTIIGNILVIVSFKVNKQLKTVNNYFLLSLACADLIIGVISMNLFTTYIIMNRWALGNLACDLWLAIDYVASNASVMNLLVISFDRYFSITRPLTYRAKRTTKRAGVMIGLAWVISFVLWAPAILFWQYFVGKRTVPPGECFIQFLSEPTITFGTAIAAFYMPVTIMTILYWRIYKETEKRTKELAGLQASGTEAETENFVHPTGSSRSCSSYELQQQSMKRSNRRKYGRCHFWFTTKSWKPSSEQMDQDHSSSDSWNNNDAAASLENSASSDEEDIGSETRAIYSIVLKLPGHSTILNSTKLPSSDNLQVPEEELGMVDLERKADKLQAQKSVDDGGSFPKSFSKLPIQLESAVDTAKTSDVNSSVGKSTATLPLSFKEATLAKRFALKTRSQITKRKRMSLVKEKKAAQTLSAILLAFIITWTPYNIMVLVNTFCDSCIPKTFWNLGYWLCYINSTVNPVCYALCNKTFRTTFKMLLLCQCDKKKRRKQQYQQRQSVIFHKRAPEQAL
# Chain of m3 receptors (P08483 whole entry): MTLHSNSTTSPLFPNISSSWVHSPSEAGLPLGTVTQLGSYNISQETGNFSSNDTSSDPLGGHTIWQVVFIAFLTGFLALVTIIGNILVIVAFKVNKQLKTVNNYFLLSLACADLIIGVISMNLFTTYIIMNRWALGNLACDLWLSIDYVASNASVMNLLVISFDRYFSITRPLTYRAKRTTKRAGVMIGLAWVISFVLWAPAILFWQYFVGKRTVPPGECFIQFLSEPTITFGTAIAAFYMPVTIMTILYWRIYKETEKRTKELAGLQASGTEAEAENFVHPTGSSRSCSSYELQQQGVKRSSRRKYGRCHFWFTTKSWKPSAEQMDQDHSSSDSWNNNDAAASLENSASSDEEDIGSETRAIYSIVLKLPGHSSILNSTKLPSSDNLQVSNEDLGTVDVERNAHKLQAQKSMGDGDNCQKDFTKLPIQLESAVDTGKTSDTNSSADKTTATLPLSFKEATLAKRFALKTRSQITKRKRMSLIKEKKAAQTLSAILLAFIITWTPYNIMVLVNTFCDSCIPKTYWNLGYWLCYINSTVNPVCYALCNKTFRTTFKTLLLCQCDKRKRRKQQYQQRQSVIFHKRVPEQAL
compound,measurement,setting,value
"CCC1=NCC2(CN3CCC2CC3)O1 (racemic) [AF123, 2-Ethyl spiro(1,3 oxazoline 5,3')quinuclidine]",Ki,"M2 muscarinic receptors; 3H-QNB-Binding KH (c), Table 4",3.9 µM
same,% H,M2 muscarinic receptors; Table 4,100%
same,Mortality no.,[1]; 50 mg/kg i.v.,0/5
same,Mortality no.,[1]; 100 mg/kg i.v.,5/5
same,Mortality time,[1]; 100 mg/kg i.v.,1 min
same,Convulsive seizure (Con),"[1]; 100 mg/kg i.v., animals affected/treated",5/5
same,Mortality no.,[1]; 200 mg/kg i.v.,5/5
same,Mortality time,[1]; 200 mg/kg i.v.,immed
same,Mortality no.,[1]; 200 mg/kg p.os,0/5
same,Mortality time,[1]; 200 mg/kg p.os,3 min
same,Tremors (Tre),"[1]; 200 mg/kg p.os, animals affected/treated",4/5
same,Mortality no.,[1]; 400 mg/kg p.os,5/5
same,Mortality time,[1]; 400 mg/kg p.os,3 min
same,Convulsive seizure (Con),[1]; [9],5/5
same,Respiratory distress (Res),[1]; [9],5/5
same,Tremors (Tre),[1]; [9],5/5
same,RATIOS c:a,M1 muscarinic receptor [2]; KH cerebellum (3H-QNB) : KH cortex (3H-PZ),3.0
same,% H,M1 muscarinic receptor [2],100%
same,Ki,M1 muscarinic receptor [2],1.3 µM
same,decomposition in aqueous solution,[3],same pattern of decomposition
"CC1OC2(CS1)CN1CCC2CC1 (stereo not drawn) [AF102B, cis-2-methylspiro(1,3-oxathiolane-5',3)quinuclidine, reference compound]",Ki,"M2 muscarinic receptors; 3H-QNB-Binding KH2 (c), Table 5",5.9 µM
same,Ki,"M2 muscarinic receptors; 3H-QNB-Binding KH (c), Table 4",6 µM
same,% H,M2 muscarinic receptors; Table 4,100%
same,% H2,M2 muscarinic receptors; Table 5,100%
same,% H,M1 muscarinic receptor [2],100%
same,Ki,M1 muscarinic receptor [2],1 µM
same,block of oxotremorine-M-induced phosphoinositide hydrolysis,[4],completely blocked
same,PI (phosphoinositides hydrolysis),"[4]; SK-N-SH m3, tested at 1mM",-
same,inhibition at 1000 µM,"[4]; SK-N-SH, read-out: inhibition of the oxotremorine-M signal",34%
same,stimulation of phosphoinositide hydrolysis,[4]; even at 1 mM,failed to stimulate phosphoinositide hydrolysis
same,% H1,M1 muscarinic receptor [5],100%
same,%H (% of high affinity state),"muscarinic receptors; with Cu++ pretreatment (100 µM, 30 minutes)",26%
same,%H (% of high affinity state),"muscarinic receptors; with Cu++ pretreatment (100 µM, 30 minutes), listed as 4",26±5%
same,%H (% of high affinity state),muscarinic receptors; without pretreatment,0%
same,Ki,"M1 muscarinic receptor [6]; +G (0.1 mM GppNHp), read-out: KH",0.7 to 1 µM
same,Ki,"M1 muscarinic receptor [6]; +G (0.1 mM GppNHp), read-out: KL",0.7 to 1 µM
same,Ki,"M1 muscarinic receptor [6]; -G (without GppNHp), read-out: KH",0.7 to 1 µM
same,Ki,"M1 muscarinic receptor [6]; -G, read-out: KL",0.7 to 1 µM
same,"PI, % of carbachol effect",m1 receptors; CHO m1,20%
same,effective concentration which induces the effect,"m1 receptors; CHO m1, PI hydrolysis, footnote b",30^b µM
same,PI (phosphoinositides hydrolysis),"m1 receptors; CHO m1, tested at 1mM",+
same,PI (phosphoinositides hydrolysis),m3 receptors,-
same,slow AHP (Ca++-dependent K+ conductance),[7]; applied topically by microdrops,block the slow AHP
same,depolarization,[7]; applied topically by microdrops (AF150: 100 µM),not shown in the case of AF102B
same,"AC, % of carbachol effect",[8]; PC12 m4,40%
same,effective concentration which induces the effect,"[8]; PC12 m4, AC activity, footnote b",0.1^b µM
same,AC (adenylate cyclase activity),"[8]; PC12 m4, tested at 1mM",+
